Data set [1] in a line: Lipophilicity, logD of the compound in 1-octanol and phosphate buffer at pH 7.4 incubated for 3 hrs by shake flask method based LC/MS/MS analysis. Conditions: 1-octanol/phosphate buffer, pH 7.4. Type of data set: physicochemical.
Data set [2] can be described thus: Metabolic stability in cryopreserved human hepatocytes assessed as intrinsic clearance measured per 10^6 cells at 1 uM after 120 mins by LC-MS/MS analysis. Type of data set: ADME, cell-based, Hepatocyte. Conditions: cryopreserved hepatocytes, read-out: CLH.
In data set [3] the target is T1, Relaxin receptor 1 (Homo sapiens) (UniProt Q9HBX9).
T1 sequence (whole entry): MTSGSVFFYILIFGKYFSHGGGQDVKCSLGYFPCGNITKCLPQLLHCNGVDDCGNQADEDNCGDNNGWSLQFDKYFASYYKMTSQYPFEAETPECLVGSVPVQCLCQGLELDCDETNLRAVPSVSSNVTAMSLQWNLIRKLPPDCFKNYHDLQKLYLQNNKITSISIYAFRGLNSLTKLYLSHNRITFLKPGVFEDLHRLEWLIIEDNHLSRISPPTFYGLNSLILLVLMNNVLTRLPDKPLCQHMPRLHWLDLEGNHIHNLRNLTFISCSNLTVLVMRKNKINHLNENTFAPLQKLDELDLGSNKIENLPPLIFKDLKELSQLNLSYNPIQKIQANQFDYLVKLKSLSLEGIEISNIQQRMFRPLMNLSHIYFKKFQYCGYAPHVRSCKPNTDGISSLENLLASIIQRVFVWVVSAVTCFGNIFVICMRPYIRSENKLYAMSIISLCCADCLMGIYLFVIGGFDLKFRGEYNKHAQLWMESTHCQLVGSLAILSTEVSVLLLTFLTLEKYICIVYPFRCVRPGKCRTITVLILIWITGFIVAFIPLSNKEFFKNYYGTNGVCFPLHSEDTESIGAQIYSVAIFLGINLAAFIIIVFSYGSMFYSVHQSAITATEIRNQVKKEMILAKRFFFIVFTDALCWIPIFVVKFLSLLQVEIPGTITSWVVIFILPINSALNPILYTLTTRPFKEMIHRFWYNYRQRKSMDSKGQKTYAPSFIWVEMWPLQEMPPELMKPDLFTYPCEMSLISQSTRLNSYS
The experiment in a line: Agonist activity at human RXFP1 expressed in T-Rex-CHO-K1 cells assessed as stimulation of cAMP production by measuring maximal efficacy at 50 uM incubated for 45 mins by HTRF assay relative to control. Type of data set: functional, cell-based. Conditions: filed as agonist. A general note: cAMP levels reflect the balance of adenylyl cyclase and phosphodiesterase activity.

Another data set addresses T2, Relaxin receptor 1 (Homo sapiens, UniProt Q9HBX9).
T2 sequence (Q9HBX9 whole entry): T1 sequence (whole entry)
In words: Agonist activity at human RXFP1 expressed in T-Rex-CHO-K1 cells assessed as stimulation of cAMP production incubated for 45 mins by HTRF assay. Type of data set: functional, cell-based.

Data set [4] is described as follows: Metabolic stability in cryopreserved human hepatocytes assessed as unbound intrinsic clearance measured per 10^6 cells at 1 uM measured after 120 mins by LC-MS/MS analysis. Conditions: 2 h. Type of data set: ADME, cell-based, Hepatocyte.

As usually defined, the logD is the decadic logarithm of the distribution of all forms, ionised or not, between an organic phase and buffer at a given pH. Higher therefore signals higher lipophilicity. A word on the Emax: it is the size of the effect at its maximum, as opposed to the concentration needed. As usually defined, the EC50 is the concentration needed to bring the measured effect to its halfway point.

Bounds are passed on as bounds.

In data set [1], `COc1cc(F)c(OCCCCC(=O)O)cc1C(=O)N[C@H]1[C@@H](C(=O)Nc2cccc(S(=O)(=O)C(F)(F)F)c2)[C@@H]2C=C[C@H]1C2` (racemic) gave a pH-dependent lipophilicity (logD) at 3 h of 2.9. In addition, the hepatocyte CLint at 1 µM in data set [2] was 16 µL/min/1e6 cells. Further, the maximal effect (Emax) in data set [3] came out at 119%. Also, the concentration for a half-maximal effect (EC50) on Relaxin receptor 1 is 0.251 µM. In addition, in data set [4], the CL free was 89 µL/min.

On to `COc1cc(F)c(OCCCC(=O)O)cc1C(=O)N[C@H]1[C@@H](C(=O)Nc2cccc(S(=O)(=O)C(F)(F)F)c2)[C@@H]2C=C[C@H]1C2` (racemic), for which the logD at 3 h in data set [1] came out at 2.5. Further, in data set [2], the hepatocyte CLint at 1 µM turned out to be 13 µL/min/1e6 cells. The Emax in data set [3] came out at 114%. In addition, the EC50 at Relaxin receptor 1 is 1.58 µM. In data set [4], the CL free was 51 µL/min.

`COc1cc(F)c(O[C@H]2CC[C@H](C(=O)O)CC2)cc1C(=O)N[C@H]1[C@@H](C(=O)Nc2cccc(S(=O)(=O)C(F)(F)F)c2)[C@@H]2C=C[C@H]1C2` gave a logD at 3 h in data set [1] of 3. Besides, the hepatocyte CLint at 1 µM in data set [2] was determined as 8.4 µL/min/1e6 cells. In data set [3], the Emax is 81%. On Relaxin receptor 1, the EC50 is 2 µM. In addition, in data set [4], the CL free worked out at 84 µL/min.

Take `COc1cc(F)c(-c2ccc(C(=O)O)cc2)cc1C(=O)N[C@H]1[C@@H](C(=O)Nc2cccc(S(=O)(=O)C(F)(F)F)c2)[C@@H]2C=C[C@H]1C2`: the maximal effect (Emax) in data set [3] turned out to be 99%.

Regarding `COc1cc(F)c(O[C@H]2CC[C@@H](C(=O)O)CC2)cc1C(=O)N[C@@H]1[C@H]2CC[C@H](C2)[C@@H]1C(=O)Nc1ccccc1`, the log distribution coefficient (logD) at 3 h in data set [1] came to 2.5. In data set [2], the hepatocyte CLint at 1 µM turned out to be 7.6 µL/min/1e6 cells. In addition, the Emax in data set [3] was 98%. In addition, the EC50 at Relaxin receptor 1 was 7.94 µM. In addition, in data set [4], the CL free was found to be 25 µL/min.

The molecule `COc1cc(F)c(O[C@H]2CC[C@@](C)(C(=O)O)CC2)cc1C(=O)N[C@@H]1C[C@@H](OC)C[C@@H]1C(=O)Nc1cccc(S(=O)(=O)C(F)(F)F)c1` returned a logD at 3 h in data set [1] of 3. For the same molecule, in data set [2], the hepatocyte CLint at 1 µM was 6.2 µL/min/1e6 cells. For the same molecule, the Emax in data set [3] amounted to 110%. For the same molecule, the EC50 on Relaxin receptor 1 is 0.0251 µM. Also, the CL free in data set [4] came to 26 µL/min.

`COc1cc(F)c(C(=O)N2CCC(C)(C(=O)O)CC2)cc1C(=O)N[C@H]1[C@@H](C(=O)Nc2cccc(S(=O)(=O)C(F)(F)F)c2)[C@@H]2C=C[C@H]1C2` (racemic): the logD at 3 h in data set [1] came out at 1.9. In addition, the hepatocyte CLint at 1 µM in data set [2] is 3 µL/min/1e6 cells. The Emax in data set [3] amounted to 111%. The 50% effective concentration (EC50) at Relaxin receptor 1 is 3.16 µM. Moreover, the CL free in data set [4] was 6.3 µL/min.

`COc1cc(F)c(O[C@H]2CC[C@@H](C(=O)O)CC2)cc1C(=O)N[C@@H]1[C@H](C(=O)Nc2ccc(F)c(C(F)(F)F)c2)[C@H]2C=C[C@@H]1C2`: in data set [1], the log distribution coefficient (logD) at 3 h came out at 3.6. Further, the hepatocyte CLint at 1 µM in data set [2] came to 4.8 µL/min/1e6 cells. For the same molecule, the Emax in data set [3] came out at 107%. In addition, on Relaxin receptor 1, the 50% effective concentration (EC50) is 2.57 µM. In addition, in data set [4], the CL free was found to be 42 µL/min.

In data set [1], `COc1cc(F)c(O[C@H]2CC[C@@H](C(=O)O)CC2)cc1C(=O)N[C@@H]1[C@H]2CC[C@H](C2)[C@@H]1C(=O)Nc1ccncc1` yielded a log distribution coefficient (logD) at 3 h of 1.6. In data set [3], the Emax was 42%. Besides, on Relaxin receptor 1, the concentration giving a half-maximal response (EC50) is greater than 50.1 µM.

As for `COc1cc(F)c(O[C@H]2CC[C@@H](C(=O)O)CC2)cc1C(=O)N[C@H]1[C@@H](C(=O)Nc2ccc(F)c(S(=O)(=O)C(F)(F)F)c2)[C@@H]2C=C[C@H]1C2`, the hepatocyte CLint at 1 µM in data set [2] amounted to 7.5 µL/min/1e6 cells. Also, the Emax in data set [3] was determined as 114%. On Relaxin receptor 1, the EC50 is 0.0158 µM. For the same molecule, in data set [4], the CL free stood at 32 µL/min.

`COc1cc(F)c(O[C@H]2CC[C@@H](C(=O)O)CC2)cc1C(=O)N[C@@H]1[C@H]2CC[C@H](C2)[C@@H]1C(=O)Nc1cccc(C(F)F)c1`: the pH-dependent lipophilicity (logD) at 3 h in data set [1] came to 2.8. The hepatocyte CLint at 1 µM in data set [2] was 11 µL/min/1e6 cells. Also, in data set [3], the maximal effect (Emax) worked out at 104%. Moreover, in data set [4], the CL free is 51 µL/min.
